Paper PMC7170507, “Biosynthesis of depsipeptides with a 3-hydroxybenzoate moiety and selective anticancer activities involves a chorismatase” (The Journal of Biological Chemistry, 2020)

Key:
[1] = system: HCT-8; test: cells; design: species or system human cancer cell lines; CCK8 cell viability assay, absorbance at 450 nm; details: Homo sapiens, 72 h
Protocol: (§1) Anticancer activities were evaluated by using human lung cancer cells PC9, human colorectal cancer cells Sw620, and human melanoma cells A375. Toxicity study was conducted by using three types of normal cells, 16HBE (an immortalized human bronchial epithelial cells), NCM460 (a normal human colon mucosal epithelial cell line), and HaCaT (a spontaneously immortalized keratinocyte cell line from adult human skin). All the cell lines were obtained from the Shanghai Institute of Cell Biology, Chinese Academy of Sciences. The cell cultivation media (Gibco) were supplemented with 10% fetal bovine serum, 100 units/ml penicillin, and 100 μg/ml streptomycin. The cells were maintained in a humidified atmosphere with 5% CO2 at 37 °C. Half-maximal inhibitory concentration (IC50) was determined by a CCK8 assay (Dojindo, Tokyo, Japan). Briefly, the cells were seeded in 96-well plates at a density of 3 × 10^3 cells/well and incubated for 24 h at 37 °C. Then the cells were treated with various concentrations of compound and incubated for 72 h. Afterward, 10 μl of CCK8 reagent was added to each well before a further incubation for 0.5–4.0 h at 37 °C. Finally, the absorbance of each well in the 96-well plate was measured at 450 nm using microplate reader. Because the 3-FAS moiety has been proposed to be the pharmacophore of anticancer activities in NATs ([3], [11]), we wished to know whether compounds 1–4 with the alternative 3-HBA moiety, instead of 3-FAS, would retain anticancer activities. The carcinoma cell lines of human lung (PC9), colon (Sw620), and melanoma (A375) were firstly selected to evaluate the activities of them, using as positive control the chemotherapeutic drug cisplatin. […] This is consistent with the activities previously shown for unantimycin A, which structurally differs from 1 at the C4 alkyl group and which has shown moderate cytotoxicity (IC50 = ∼10 μM) against human cervix epidermoid carcinoma, promyelocytic leukemia, and sarcoma cell lines ([13]). […] Further work will be required to establish convincingly that the apparently selective anticancer activities of 1–4 are endowed by the absence of binding to the quinone reduction site of the cytochrome bc1 complex, which makes antimycin A lethal to the mitochondrial respiratory chain ([12], [20]). Moreover, the broad-spectrum anticancer activities of 1–4 were evaluated by using six other carcinoma cell lines (Table S9).

[2] = system: Hela; test: cells; design: species or system human cancer cell lines; CCK8 cell viability assay, absorbance at 450 nm; details: Homo sapiens, 72 h
Protocol: as §1

[3] = system: HepG2; test: cells; design: species or system human cancer cell lines; CCK8 cell viability assay, absorbance at 450 nm; details: Homo sapiens, 72 h
Protocol: as §1

[4] = system: HT29; test: cells; design: species or system human cancer cell lines; CCK8 cell viability assay, absorbance at 450 nm; details: Homo sapiens, HT-29, 72 h
Protocol: as §1

[5] = system: SGC7901; test: cells; design: species or system human cancer cell lines; CCK8 cell viability assay, absorbance at 450 nm; details: Homo sapiens, SGC-7901, 72 h
Protocol: as §1

[6] = system: A549; test: cells; design: species or system human cancer cell lines; CCK8 cell viability assay, absorbance at 450 nm; details: Homo sapiens, 72 h
Protocol: as §1

[7] = system: T1, C=C(O[C@@H]1C=C(C(=O)O)C=C[C@H]1O)C(=O)O; test: purified protein; type: biochemical, Streptomyces conglobatus; details: 50 mM Tris-HCl pH 8.0, 0.5 μM enzyme, 50-300 μM chorismate, 0.5 mM NADH, LDH
T1 construct: catalytic Glu-325

IC50 [1]	IC50 [2]	IC50 [3]	IC50 [4]	IC50 [5]	IC50 [6]	Compound	Km [7]	kcat [7]
17.9 ± 1.4 µM	18.2 ± 0.2 µM	13.4 ± 0.1 µM	19.4 ± 0.1 µM	11.9 ± 0.1 µM	7.7 ± 0.07 µM	CCC(C)C1OC(=O)C(C)(C)C(=O)C(Cc2ccccc2)OC(=O)C(C(C)C)OC(=O)C(NC(=O)c2cccc(O)c2)C(C)OC1=O (centres unmarked) [compound 1, unantimycin B]		
9.23 ± 0.16 µM	15.3 ± 1.5 µM	15.2 ± 0.7 µM	14.9 ± 0.3 µM	9.57 ± 0.22 µM	2.99 ± 0.02 µM	CCC(C)C1OC(=O)C(C)(C)C(O)C(Cc2ccccc2)OC(=O)C(C(C)C)OC(=O)C(NC(=O)c2cccc(O)c2)C(C)OC1=O (centres unmarked) [compound 2, 2]		
10.9 ± 0.8 µM	23 ± 0.4 µM	17.5 ± 0.6 µM	17.6 ± 0.9 µM	6.63 ± 0.17 µM	2.32 ± 0.01 µM	CC(C)C1OC(=O)C(NC(=O)c2cccc(O)c2)C(C)OC(=O)C(C(C)C)OC(=O)C(C)(C)C(=O)C(Cc2ccccc2)OC1=O (centres unmarked) [compound 3, 3]		
8.95 ± 0.13 µM	23.6 ± 0.5 µM	18.3 ± 0.7 µM	17.2 ± 0.8 µM	10.1 ± 0.3 µM	2.97 ± 0.01 µM	CC(C)C1OC(=O)C(NC(=O)c2cccc(O)c2)C(C)OC(=O)C(C(C)C)OC(=O)C(C)(C)C(O)C(Cc2ccccc2)OC1=O (centres unmarked) [compound 4, 4]		
						Nat-hyg5 (Streptomyces conglobatus)	54 ± 6 µM	0.084 ± 0.003 s⁻¹
